Laboratory results: US8686048B2, “Immunomodulator and anti-inflammatory compounds” (Rhizen Pharmaceuticals SA, priority 2010, dated 2014)

Experiments:
IL-17 = assay: Inhibition of IL-17 release from mouse splenocytes (PMA + ionomycin, ELISA); type: cell-based, Balb/c mice; details: Splenocyte, 10 μM, 3 h
Description: 2. Inhibition of IL-17 Release from Mouse Splenocytes:
Splenocytes isolated from Balb/c mice were re-suspended in RPMI medium at a concentration of 1×10^6 cells/ml and seeded in a 6 well plate. Cells were incubated with desired concentrations of the inhibitor for 15 min prior to induction with 10 ng/ml PMA+1 μM ionomycin. After a 3 h incubation, supernatant was collected and analyzed for IL-17 concentration using an ELISA kit. Data were analyzed using GraphPad Prism. IC50 values for each compound were determined based on the percent inhibition due to the test compound compared to the control.

h-DHODH = biological target: T1, h-DHODH (Homo sapiens, UniProt Q02127); assay: Dihydro-orotate dehydrogenase inhibition assay (U937 membrane preparations, DCIP reduction); type: biochemical; details: U937 membrane preparation; for inhibition at 0.3 µM: compound tested at 0.3 uM (footnote *)
T1 construct: endogenous in cells; host or cells: U937 cells (membrane fraction, solubilised with 1% octyl glucoside)
Description: Dihydro-Orotate Dehydrogenase Inhibition Assay
Dihydro-orotate dehydrogenase (DHODH) catalyzes the […] of dihydro-orotate to orotate during de novo biosynthesis of pyrimidines Inhibition of DHODH activity in U937 membrane preparations was measured by the dihydro-orotate driven reduction of 2,6 dichloroindophenol (DCIP).
U937 cells were homogenized in 20 mM Tris/HCl (pH 7.2) containing 1 mM EDTA. […] Following washes, the pellet was dissolved in 20 mM Tris/HCl containing 150 mM NaCl, 1 mM EDTA, and 1% octyl glucoside on ice for 1 h. Particulate matter was removed by centrifugation at 100000×g for 1 h at 4° C. […] The mixture was incubated at 37° C. for 4 h before measuring the change in absorbance on a plate reader (BMG Labtech., Germany) at 600 nm. Data were analyzed using GraphPad Prism. IC50 for each compound was determined based on the percent inhibition of dihydro-orotate […].

T1 sequence (Q02127 whole entry): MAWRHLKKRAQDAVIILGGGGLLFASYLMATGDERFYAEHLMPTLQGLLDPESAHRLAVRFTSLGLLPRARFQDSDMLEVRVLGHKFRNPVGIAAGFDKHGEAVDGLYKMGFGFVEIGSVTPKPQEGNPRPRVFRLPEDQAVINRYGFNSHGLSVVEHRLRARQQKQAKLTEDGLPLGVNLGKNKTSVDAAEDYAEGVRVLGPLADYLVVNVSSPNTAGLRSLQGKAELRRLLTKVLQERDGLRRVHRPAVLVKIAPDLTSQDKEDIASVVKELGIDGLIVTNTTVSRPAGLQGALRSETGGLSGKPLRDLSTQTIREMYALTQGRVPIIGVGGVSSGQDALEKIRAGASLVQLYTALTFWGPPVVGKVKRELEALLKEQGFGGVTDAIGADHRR

SMILES | inhibition at 1 µM (h-DHODH) | IC50 (h-DHODH) | inhibition at 0.3 µM (h-DHODH) | inhibition at 10 µM (IL-17)
CCOc1cccc(-c2cc(F)c(NC(=O)c3c(Cl)ccc(Cl)c3C(=O)O)c(F)c2)c1 [Example 28, 3,6-dichloro-2-(3′-ethoxy-3,5-difluorobiphenyl-4-ylcarbamoyl)benzoic acid] | 12.9% |  |  | 18.8%
CCOc1cccc(-c2cc(F)c(NC(=O)c3ccccc3CO)c(Cl)c2)c1 [Example 36, N-(3-Chloro-3′-ethoxy-5-fluorobiphenyl-4-yl)-2-(hydroxymethyl)benzamide] |  |  |  | 45.5%
CCOc1cccc(-c2cc(F)c(NC(=O)c3ccccc3CO)c(F)c2)c1 [Example 37, N-(3′-Ethoxy-3,5-difluorobiphenyl-4-yl)-2-(hydroxymethyl)benzamide] | 14.8% |  |  | 17.8%
CCOc1cccc(-c2cc(F)c(NC(=O)c3cccc(F)c3C(=O)O)c(Cl)c2)c1 [Example 38, 2-(3-Chloro-3′-ethoxy-5-fluorobiphenyl-4-ylcarbamoyl)-6-fluorobenzoic acid] | 27.8% |  |  | 9.35%
O=C(O)c1ccccc1C(=O)Nc1c(F)cc(OCc2ccccc2)cc1F [Example 40, 2-[4-(Benzyloxy)-2,6-difluorophenylcarbamoyl]benzoic acid] |  |  |  | 8.79%
O=C(O)c1ccccc1C(=O)Nc1c(F)cc(-c2cccc(OC(F)F)c2)cc1F [Example 43, 2-[3′-(Difluoromethoxy)-3,5-difluorobiphenyl-4-ylcarbamoyl]benzoic acid] | 58.2% | 181 nM |  | 6.82%
O=C(O)c1ccccc1C(=O)Nc1c(F)cc(-c2cccc(OC(F)F)c2)cc1Cl [Example 44, 2-[3-Chloro-3′-(difluoromethoxy)-5-fluorobiphenyl-4-ylcarbamoyl]benzoic acid] | 71.1% | 90.6 nM |  | 35%
COc1ccc(Cl)c(-c2cc(F)c(NC(=O)c3ccccc3C(=O)O)c(F)c2)c1 [Example 45, 2-(2′-Chloro-3,5-difluoro-5′-methoxybiphenyl-4-ylcarbamoyl)benzoic acid] | 96.2% | 44.1 nM |  | 48.5%
COc1cc(F)cc(-c2cc(F)c(NC(=O)c3ccccc3C(=O)O)c(F)c2)c1 [Example 46, 2-(3,3′,5-Trifluoro-5′-methoxybiphenyl-4-ylcarbamoyl)benzoic acid] | 56% |  |  | 3.69%
COc1ccc(-c2cc(F)c(NC(=O)c3ccccc3C(=O)O)c(F)c2)cc1OC [Example 49, 2-(3,5-Difluoro-3′,4′-dimethoxybiphenyl-4-ylcarbamoyl)benzoic acid] |  |  |  | 3.95%
COc1cc(Cl)cc(-c2cc(F)c(NC(=O)c3ccccc3C(=O)O)c(Cl)c2)c1 [Example 51, 2-(3,3′-Dichloro-5-fluoro-5′-methoxybiphenyl-4-ylcarbamoyl)benzoic acid] | 26.6% |  |  | 10.8%
O=C(O)c1ccccc1C(=O)Nc1c(F)cc(-c2ccc3c(c2)CCO3)cc1Cl [Example 53, 2-[2-Chloro-4-(2,3-dihydrobenzofuran-5-yl)-6-fluorophenylcarbamoyl]benzoic acid] |  |  |  | 8.28%
Cc1nn(C)c2ccc(-c3cc(F)c(NC(=O)c4ccccc4C(=O)O)c(F)c3)cc12 [Example 54, 2-[4-(1,3-Dimethyl-1H-indazol-5-yl)-2,6-difluorophenylcarbamoyl]benzoic acid] |  |  |  | 22.6%
COc1cc(Cl)cc(-c2cc(F)c(NC(=O)c3ccccc3C(=O)O)c(F)c2)c1 [Example 55, 2-(3′-Chloro-3,5-difluoro-5′-methoxybiphenyl-4-ylcarbamoyl)benzoic acid] | 44.5% |  |  | 5.66%
COc1ccc(-c2cc(F)c(NC(=O)c3ccccc3C(=O)O)c(Cl)c2)cc1OC [Example 56, 2-(3-Chloro-5-fluoro-3′,4′-dimethoxybiphenyl-4-ylcarbamoyl)benzoic acid] | 1.77% |  |  | 5.49%
COc1ccc(Cl)c(-c2cc(F)c(NC(=O)c3ccccc3C(=O)O)c(Cl)c2)c1 [Example 57, 2-(2′,3-Dichloro-5-fluoro-5′-methoxybiphenyl-4-ylcarbamoyl)benzoic acid] | 68.1% |  |  | 
COc1ccc(F)c(-c2cc(F)c(NC(=O)c3ccccc3C(=O)O)c(F)c2)c1 [Example 58, 2-(2′,3,5-Trifluoro-5′-methoxybiphenyl-4-ylcarbamoyl)benzoic acid] | 76.1% |  |  | 5.46%
COc1cc(-c2cc(F)c(NC(=O)c3ccccc3C(=O)O)c(Cl)c2)ccc1Cl [Example 60, 2-(3,4′-Dichloro-5-fluoro-3′-methoxybiphenyl-4-ylcarbamoyl)benzoic acid] | 41.8% |  |  | 20.3%
COc1ccc(F)c(-c2cc(F)c(NC(=O)c3ccccc3C(=O)O)c(Cl)c2)c1 [Example 61, 2-(3-chloro-2′,5-difluoro-5′-methoxybiphenyl-4-ylcarbamoyl)benzoic acid] | 73.7% |  |  | 4.23%
CCc1cccc(-c2cc(F)c(NC(=O)c3ccccc3C(=O)O)c(Cl)c2)c1 [Example 65, 2-(3-chloro-3′-ethyl-5-fluorobiphenyl-4-ylcarbamoyl)benzoic acid] | 71.2% | 146 nM |  | 11%
CCOc1cccc(-c2cc(F)c(NC(=O)c3ccccc3C(=O)O)c(Cl)c2)c1F [Example 66, 2-(3-chloro-3′-ethoxy-2′,5-difluorobiphenyl-4-ylcarbamoyl)benzoic acid] | 87.5% | 84.4 nM |  | 
O=C(O)c1ccccc1C(=O)Nc1c(F)cc(-c2cccc(OCC(F)(F)F)c2)cc1Cl [Example 68, 2-[3-chloro-5-fluoro-3′-(2,2,2-trifluoroethoxy)biphenyl-4-ylcarbamoyl]benzoic acid] | 86.5% | 62.2 nM |  | 
COc1cccc(-c2ccc(NC(=O)c3ccccc3C(=O)O)c(F)c2)c1 [Example 69, 2-(3-fluoro-3′-methoxybiphenyl-4-ylcarbamoyl)benzoic acid] | 22% |  |  | 5.54%
O=C(O)c1ccccc1C(=O)Nc1c(F)cc(-c2cccc(OCC(F)(F)F)c2)cc1F [Example 83, 2-[3,5-difluoro-3′-(2,2,2-trifluoroethoxy)biphenyl-4-ylcarbamoyl]benzoic acid] |  |  | 43.6% | 8.79%

Now from value to compound, other results behind:

inhibition at 1 µM (h-DHODH) | IC50 (h-DHODH) | inhibition at 0.3 µM (h-DHODH) | SMILES | inhibition at 10 µM (IL-17)
55.2% |  |  | O=C(O)c1ccccc1C(=O)Nc1c(F)cc(-c2ccc3c(c2)OCO3)cc1F [Example 47, 2-[4-(Benzo[d][1,3]dioxol-5-yl)-2,6-difluorophenylcarbamoyl]benzoic acid] | 6.22%
47.1% |  |  | O=C(O)c1ccccc1C(=O)Nc1c(F)cc(-c2ccc3c(c2)OCO3)cc1Cl [Example 48, 2-[4-(Benzo[d][1,3]dioxol-5-yl)-2-chloro-6-fluorophenylcarbamoyl]benzoic acid] | 22%
12.8% |  |  | O=C(O)c1ccccc1C(=O)Nc1c(F)cc(-c2ccc3c(c2)CCO3)cc1F [Example 52, 2-[4-(2,3-Dihydrobenzofuran-5-yl)-2,6-difluorophenylcarbamoyl]benzoic acid] | 13.8%
34.5% |  |  | COc1cc(-c2cc(F)c(NC(=O)c3ccccc3C(=O)O)c(F)c2)ccc1Cl [Example 59, 2-(4′-Chloro-3,5-difluoro-3′-methoxybiphenyl-4-ylcarbamoyl)benzoic acid] | 7.36%
12.4% |  |  | COc1cc(-c2cc(F)c(NC(=O)c3ccccc3C(=O)O)c(F)c2)ccc1F [Example 62, 2-(3,4′,5-trifluoro-3′-methoxybiphenyl-4-ylcarbamoyl)benzoic acid] | 8.34%
76.7% | 22 nM |  | Cc1c[nH]c2ccc(-c3cc(F)c(NC(=O)c4ccccc4C(=O)O)c(F)c3)cc12 [Example 63, 2-[2,6-difluoro-4-(3-methyl-1H-indol-5-yl)phenylcarbamoyl]benzoic acid] | 0%
23.4% |  |  | Cc1n[nH]c2ccc(-c3cc(F)c(NC(=O)c4ccccc4C(=O)O)c(F)c3)cc12 [Example 64, 2-[2,6-difluoro-4-(3-methyl-1H-indazol-5-yl)phenylcarbamoyl]benzoic acid] | 15.3%
54.1% |  |  | O=C(O)c1ccccc1C(=O)Nc1c(F)cc(-c2ccc3c(c2)OCCO3)cc1Cl [Example 67, 2-[2-chloro-4-(2,3-dihydrobenzo[b][1,4]dioxin-6-yl)-6-fluorophenylcarbamoyl]benzoic acid] | 3.56%
16.9% |  |  | CC[S+]([O-])c1cccc(-c2cc(F)c(NC(=O)c3ccccc3C(=O)O)c(F)c2)c1 (stereo not shown) [Example 72, 2-[3′-(ethylsulfinyl)-3,5-difluorobiphenyl-4-ylcarbamoyl]benzoic acid] | 7.36%
 |  | 36.6% | CCc1cccc(-c2cc(F)c(NC(=O)c3ccccc3C(=O)O)c(F)c2)c1 [Example 84, 2-(3′-ethyl-3,5-difluorobiphenyl-4-ylcarbamoyl)benzoic acid] | 12.1%
